# Measured values: patent US8338565B2, “Macrocyclic compounds for inhibition of tumor necrosis factor alpha” (Ensemble Therapeutics Corporation, priority 2008, dated 2012)
# Numbered stars: 1 amine (or outer) side, 2 acyl side, 3 side chain; on linkers, the order of the positions; unused ones are H or OH. Bridge positions count the residues as written; N and C are the ends. Square brackets hold non-standard residues; d marks the D form. Peptide text beside a SMILES is read from it. Phe(4-COOH) = N[C@@H](Cc1ccc(C(=O)O)cc1)C(=O)O; Bip = N[C@@H](Cc1ccc(-c2ccccc2)cc1)C(=O)O; dBip = N[C@H](Cc1ccc(-c2ccccc2)cc1)C(=O)O; dPhe(4-NH2) = Nc1ccc(C[C@@H](N)C(=O)O)cc1; Phe(4-NH2) = Nc1ccc(C[C@H](N)C(=O)O)cc1; d(hPhe) = N[C@H](CCc1ccccc1)C(=O)O; hPhe = N[C@@H](CCc1ccccc1)C(=O)O; 2Thi = N[C@@H](Cc1cccs1)C(=O)O; d2Thi = N[C@H](Cc1cccs1)C(=O)O; Suc = O=C(CCC(=O)[*:2])[*:1]; Nphe = O=C(O)CNCc1ccccc1; βAla = NCCC(=O)O
# Biological target: T1, TNFα / TNFα receptor (TNFα R1/Fc) (Homo sapiens, UniProt P01375)
# T1 construct: purchased R&D Systems
# T1 sequence (P01375 77-233 limits assumed, species assumed): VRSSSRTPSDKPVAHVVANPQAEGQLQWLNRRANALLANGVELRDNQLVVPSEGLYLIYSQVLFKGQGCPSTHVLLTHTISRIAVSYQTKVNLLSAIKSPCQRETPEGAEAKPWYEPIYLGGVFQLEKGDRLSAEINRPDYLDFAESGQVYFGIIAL
# Assay: Inhibition of binding of TNFα to the TNFα receptor (plate ELISA competition)
# Conditions: Activity (IC50, inhibition of TNFα binding to TNFα R1/Fc), Table 2
# Summary of the method: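 Compound dilutions were preincubated 30 min at RT with 8.33 nM TNFα R1/Fc in PBST with 2% DMSO, then added to wells coated with 15 nM TNFα for 30 min. Bound receptor was detected with HRP anti-human Fc and TMB, read as A450.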
row,SMILES,IC50 [µM]
1,O=C1COc2ccc(cc2)C[C@@H](C(=O)N[C@H](Cc2ccccc2)C(=O)O)NC(=O)[C@H](CCc2ccccc2)NC(=O)[C@@H](Cc2ccc(-c3ccccc3)cc2)NC(=O)[C@H](Cc2cccs2)N1 [Compound 480],10 to 30
2,O=C1COc2ccc(cc2)C[C@@H](C(=O)N[C@@H](Cc2ccccc2)C(=O)O)NC(=O)[C@H](CCc2ccccc2)NC(=O)[C@@H](Cc2ccc(-c3ccccc3)cc2)NC(=O)[C@H](Cc2cccs2)N1 [Compound 481],< 10
3,O=C1COc2ccc(cc2)C[C@@H](C(=O)N[C@@H](CO)C(=O)O)NC(=O)[C@H](CCc2ccccc2)NC(=O)[C@@H](Cc2ccc(-c3ccccc3)cc2)NC(=O)[C@H](Cc2cccs2)N1 [Compound 486],< 10

# Same assay, conditions: Table 2; read-out: Activity (IC50, inhibition of TNFα binding to TNFα R1/Fc)
row,SMILES,IC50 [µM]
1,O=C1CCNC(=O)c2ccc(cc2)C[C@@H](C(=O)O)NC(=O)[C@@H](Cc2ccccc2)NC(=O)[C@@H](Cc2ccc(-c3ccccc3)cc2)NC(=O)[C@H](CCc2ccccc2)N1 [Compound 468] ([βAla][hPhe][dBip][dF][Phe(4-COOH)]-OH; lactam N-5),> 100
2,O=C1CCNC(=O)c2ccc(cc2)C[C@@H](C(=O)O)NC(=O)[C@@H](Cc2ccccc2)NC(=O)[C@@H](Cc2ccc(-c3ccccc3)cc2)NC(=O)[C@@H](CCc2ccccc2)N1 [Compound 469] ([βAla][d(hPhe)][dBip][dF][Phe(4-COOH)]-OH; lactam N-5),> 100
3,O=C1CCC(=O)N[C@H](CCc2ccccc2)C(=O)N[C@@H](Cc2ccc(-c3ccccc3)cc2)C(=O)N[C@H](Cc2ccccc2)C(=O)N[C@H](C(=O)N[C@@H](CCc2ccccc2)C(=O)O)Cc2ccc(cc2)N1 [Compound 470] ([d(hPhe)][Bip][dF][Phe(4-NH2)][hPhe]-OH; linker N-4 via Suc),< 10
4,O=C1CCC(=O)N[C@H](CCc2ccccc2)C(=O)N[C@@H](Cc2ccc(-c3ccccc3)cc2)C(=O)N[C@H](Cc2ccccc2)C(=O)N[C@H](C(=O)N[C@@H](Cc2ccc(O)cc2)C(=O)O)Cc2ccc(cc2)N1 [Compound 471] ([d(hPhe)][Bip][dF][Phe(4-NH2)]Y-OH; linker N-4 via Suc),< 10
5,O=C(O)CNC(=O)[C@@H]1Cc2ccc(cc2)OCC(=O)N[C@@H](Cc2cccs2)C(=O)N[C@H](Cc2ccc(-c3ccccc3)cc2)C(=O)N[C@@H](CCc2ccccc2)C(=O)N1 [Compound 472],< 10
6,C[C@H](NC(=O)[C@@H]1Cc2ccc(cc2)OCC(=O)N[C@@H](Cc2cccs2)C(=O)N[C@H](Cc2ccc(-c3ccccc3)cc2)C(=O)N[C@@H](CCc2ccccc2)C(=O)N1)C(=O)O [Compound 473],< 10
7,O=C(O)CCNC(=O)[C@@H]1Cc2ccc(cc2)OCC(=O)N[C@@H](Cc2cccs2)C(=O)N[C@H](Cc2ccc(-c3ccccc3)cc2)C(=O)N[C@@H](CCc2ccccc2)C(=O)N1 [Compound 475],< 10
8,CC(C)(NC(=O)[C@@H]1Cc2ccc(cc2)OCC(=O)N[C@@H](Cc2cccs2)C(=O)N[C@H](Cc2ccc(-c3ccccc3)cc2)C(=O)N[C@@H](CCc2ccccc2)C(=O)N1)C(=O)O [Compound 477],< 10
9,O=C1COc2ccc(cc2)C[C@@H](C(=O)NC2(C(=O)O)CC2)NC(=O)[C@H](CCc2ccccc2)NC(=O)[C@@H](Cc2ccc(-c3ccccc3)cc2)NC(=O)[C@H](Cc2cccs2)N1 [Compound 478],< 10
10,O=C(O)CNC(=O)CNC(=O)[C@@H]1Cc2ccc(cc2)OCC(=O)N[C@@H](Cc2cccs2)C(=O)N[C@H](Cc2ccc(-c3ccccc3)cc2)C(=O)N[C@@H](CCc2ccccc2)C(=O)N1 [Compound 479],< 10
11,O=C1COc2ccc(cc2)C[C@@H](C(=O)NS(=O)(=O)c2ccccc2)NC(=O)[C@H](CCc2ccccc2)NC(=O)[C@@H](Cc2ccc(-c3ccccc3)cc2)NC(=O)[C@H](Cc2cccs2)N1 [Compound 483],> 100
12,Cc1ccc(S(=O)(=O)NCCNC(=O)[C@@H]2Cc3ccc(cc3)OCC(=O)N[C@@H](Cc3cccs3)C(=O)N[C@H](Cc3ccc(-c4ccccc4)cc3)C(=O)N[C@@H](CCc3ccccc3)C(=O)N2)cc1 [Compound 484],> 100
13,O=C(O)C[C@H](Cc1ccccc1)NC(=O)[C@@H]1Cc2ccc(cc2)OCC(=O)N[C@@H](Cc2cccs2)C(=O)N[C@H](Cc2ccc(-c3ccccc3)cc2)C(=O)N[C@@H](CCc2ccccc2)C(=O)N1 [Compound 485],10 to 30
14,CC(C)[C@H](NC(=O)[C@@H]1Cc2ccc(cc2)OCC(=O)N[C@@H](Cc2cccs2)C(=O)N[C@H](Cc2ccc(-c3ccccc3)cc2)C(=O)N[C@@H](CCc2ccccc2)C(=O)N1)C(=O)O [Compound 487],10 to 30
15,NC(=O)C[C@@H]1NC(=O)COc2ccc(cc2)C[C@@H](C(=O)O)NC(=O)[C@H](Cc2ccccc2)NC(=O)[C@@H](Cc2ccc(-c3ccccc3)cc2)NC1=O [Compound 488],> 100
16,CC(C)(C)Oc1ccc(C[C@@H]2NC(=O)COc3ccc(cc3)C[C@@H](C(=O)O)NC(=O)[C@H](Cc3ccccc3)NC(=O)[C@H](Cc3ccc(-c4ccccc4)cc3)NC2=O)cc1 [Compound 489],> 100
17,CC(=O)NCCCC[C@@H]1NC(=O)COc2ccc(cc2)C[C@@H](C(=O)O)NC(=O)[C@H](Cc2ccccc2)NC(=O)[C@H](Cc2ccc(-c3ccccc3)cc2)NC1=O [Compound 490],> 100

row,SMILES,IC50 [µM]
1,O=C1COc2ccc(cc2)C[C@@H](C(=O)O)NC(=O)[C@H](Cc2ccccc2)NC(=O)[C@H](Cc2ccc(-c3ccccc3)cc2)NC(=O)[C@H](Cc2ccc(OCc3ccccc3)cc2)N1 [Compound 491],> 100
2,O=C1CCC(=O)N[C@@H](Cc2cccs2)C(=O)N[C@H](Cc2ccc(-c3ccccc3)cc2)C(=O)N[C@H](Cc2ccccc2)C(=O)N[C@H](C(=O)O)Cc2ccc(cc2)N1 [Compound 494] ([2Thi][dBip][dF][Phe(4-NH2)]-OH; linker N-4 via Suc),> 100
3,O=C1CCC(=O)N[C@@H](Cc2cccs2)C(=O)N[C@@H](Cc2ccc(-c3ccccc3)cc2)C(=O)N[C@@H](Cc2ccccc2)C(=O)N[C@H](C(=O)O)Cc2ccc(cc2)N1 [Compound 495] ([2Thi][Bip]F[Phe(4-NH2)]-OH; linker N-4 via Suc),> 100
4,O=C1CCC(=O)N[C@H](Cc2cccs2)C(=O)N[C@H](Cc2ccc(-c3ccccc3)cc2)C(=O)N[C@@H](Cc2ccccc2)C(=O)N[C@H](C(=O)O)Cc2ccc(cc2)N1 [Compound 496] ([d2Thi][dBip]F[Phe(4-NH2)]-OH; linker N-4 via Suc),> 100
5,O=C1CCC(=O)N[C@H](Cc2cccs2)C(=O)N[C@@H](Cc2ccc(-c3ccccc3)cc2)C(=O)N[C@@H](Cc2ccccc2)C(=O)N[C@@H](C(=O)O)Cc2ccc(cc2)N1 [Compound 497] ([d2Thi][Bip]F[dPhe(4-NH2)]-OH; linker N-4 via Suc),> 100
6,O=C1CCC(=O)N[C@H](Cc2cccs2)C(=O)N[C@H](Cc2ccc(-c3ccccc3)cc2)C(=O)N[C@H](Cc2ccccc2)C(=O)N[C@@H](C(=O)O)Cc2ccc(cc2)N1 [Compound 498] ([d2Thi][dBip][dF][dPhe(4-NH2)]-OH; linker N-4 via Suc),> 100
7,O=C1CCC(=O)N[C@@H](Cc2cccs2)C(=O)N[C@@H](Cc2ccc(-c3ccccc3)cc2)C(=O)N[C@H](Cc2ccccc2)C(=O)N[C@@H](C(=O)O)Cc2ccc(cc2)N1 [Compound 499] ([2Thi][Bip][dF][dPhe(4-NH2)]-OH; linker N-4 via Suc),> 100
8,O=C1CCC(=O)N[C@@H](Cc2cccs2)C(=O)N[C@H](Cc2ccc(-c3ccccc3)cc2)C(=O)N[C@H](Cc2ccccc2)C(=O)N[C@@H](C(=O)O)Cc2ccc(cc2)N1 [Compound 501] ([2Thi][dBip][dF][dPhe(4-NH2)]-OH; linker N-4 via Suc),> 100
9,O=C1CCC(=O)N[C@@H](Cc2cccs2)C(=O)N[C@@H](Cc2ccc(-c3ccccc3)cc2)C(=O)N[C@@H](Cc2ccccc2)C(=O)N[C@@H](C(=O)O)Cc2ccc(cc2)N1 [Compound 502] ([2Thi][Bip]F[dPhe(4-NH2)]-OH; linker N-4 via Suc),> 100
10,O=C1CCC(=O)N[C@H](Cc2cccs2)C(=O)N[C@H](Cc2ccc(-c3ccccc3)cc2)C(=O)N[C@@H](Cc2ccccc2)C(=O)N[C@@H](C(=O)O)Cc2ccc(cc2)N1 [Compound 503] ([d2Thi][dBip]F[dPhe(4-NH2)]-OH; linker N-4 via Suc),> 100
11,O=C(O)CN(Cc1ccccc1)C(=O)[C@@H]1Cc2ccc(cc2)NC(=O)CCC(=O)N[C@H](CCc2ccccc2)C(=O)N[C@@H](Cc2ccc(-c3ccccc3)cc2)C(=O)N[C@H](Cc2ccccc2)C(=O)N1 [Compound 504] ([d(hPhe)][Bip][dF][Phe(4-NH2)][Nphe]-OH; linker N-4 via Suc),< 10
12,Nc1ccc(C[C@H](NC(=O)[C@@H]2Cc3ccc(cc3)NC(=O)CCC(=O)N[C@H](CCc3ccccc3)C(=O)N[C@@H](Cc3ccc(-c4ccccc4)cc3)C(=O)N[C@H](Cc3ccccc3)C(=O)N2)C(=O)O)cc1 [Compound 505] ([d(hPhe)][Bip][dF][Phe(4-NH2)][Phe(4-NH2)]-OH; linker N-4 via Suc),10 to 30
13,O=C1COc2ccc(cc2)C[C@@H](C(=O)O)NC(=O)[C@H](CCc2ccccc2)NC(=O)[C@@H](Cc2ccc(-c3ccccc3)cc2)NC(=O)C(c2ccccc2)N1 (stereo partly shown) [Compound 507],10 to 30
14,CC(=O)NCCCC[C@@H]1NC(=O)COc2ccc(cc2)C[C@@H](C(=O)O)NC(=O)[C@H](CCc2ccccc2)NC(=O)[C@@H](Cc2ccc(-c3ccccc3)cc2)NC1=O [Compound 508],< 10
15,O=C1COc2ccc(cc2)C[C@@H](C(=O)O)NC(=O)[C@H](CCc2ccccc2)NC(=O)[C@@H](Cc2ccc(-c3ccccc3)cc2)NC(=O)[C@H](CCCc2ccccc2)N1 [Compound 509],< 10
16,O=C1COc2ccc(cc2)C[C@@H](C(=O)O)NC(=O)[C@H](CCc2ccccc2)NC(=O)[C@@H](Cc2ccc(-c3ccccc3)cc2)NC(=O)[C@H](Cc2ccc(-c3ccccc3)cc2)N1 [Compound 510],< 10
17,O=C1COc2ccc(cc2)C[C@@H](C(=O)O)NC(=O)[C@H](CCc2ccccc2)NC(=O)[C@@H](Cc2ccc(-c3ccccc3)cc2)NC(=O)[C@H](Cc2ccccc2)N1 [Compound 511],< 10
